Tests used:
[1] = molecular target: T1, Mitogen-activated protein kinase kinase kinase 12 (Homo sapiens, UniProt Q12852); experiment: DLK Biochemical Assay
T1 sequence (Q12852 whole entry): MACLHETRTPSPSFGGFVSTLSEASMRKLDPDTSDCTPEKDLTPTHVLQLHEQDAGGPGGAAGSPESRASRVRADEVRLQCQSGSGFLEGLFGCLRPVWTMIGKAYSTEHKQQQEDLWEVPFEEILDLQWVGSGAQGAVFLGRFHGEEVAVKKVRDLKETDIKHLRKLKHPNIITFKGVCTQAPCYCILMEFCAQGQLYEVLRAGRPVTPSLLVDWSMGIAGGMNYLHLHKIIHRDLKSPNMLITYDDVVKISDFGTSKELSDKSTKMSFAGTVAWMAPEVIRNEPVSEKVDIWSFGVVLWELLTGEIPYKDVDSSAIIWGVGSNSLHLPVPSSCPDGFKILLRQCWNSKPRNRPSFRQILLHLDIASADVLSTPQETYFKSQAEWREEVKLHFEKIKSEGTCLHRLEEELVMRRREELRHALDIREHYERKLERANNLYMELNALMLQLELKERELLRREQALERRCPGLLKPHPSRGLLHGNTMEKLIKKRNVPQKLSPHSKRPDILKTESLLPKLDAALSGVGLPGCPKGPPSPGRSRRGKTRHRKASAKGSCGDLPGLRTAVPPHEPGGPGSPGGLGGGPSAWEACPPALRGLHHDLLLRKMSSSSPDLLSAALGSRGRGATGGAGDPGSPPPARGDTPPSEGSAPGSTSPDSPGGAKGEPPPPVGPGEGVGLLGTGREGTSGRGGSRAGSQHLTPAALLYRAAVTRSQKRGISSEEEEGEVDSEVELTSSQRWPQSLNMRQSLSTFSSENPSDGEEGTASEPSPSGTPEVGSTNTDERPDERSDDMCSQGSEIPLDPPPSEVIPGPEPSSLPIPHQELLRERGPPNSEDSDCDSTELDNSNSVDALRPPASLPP

[2] = molecular target: T2, Mitogen-activated protein kinase kinase kinase 13 (Homo sapiens, UniProt O43283); experiment: LZK Biochemical Assay
T2 sequence (O43283 whole entry): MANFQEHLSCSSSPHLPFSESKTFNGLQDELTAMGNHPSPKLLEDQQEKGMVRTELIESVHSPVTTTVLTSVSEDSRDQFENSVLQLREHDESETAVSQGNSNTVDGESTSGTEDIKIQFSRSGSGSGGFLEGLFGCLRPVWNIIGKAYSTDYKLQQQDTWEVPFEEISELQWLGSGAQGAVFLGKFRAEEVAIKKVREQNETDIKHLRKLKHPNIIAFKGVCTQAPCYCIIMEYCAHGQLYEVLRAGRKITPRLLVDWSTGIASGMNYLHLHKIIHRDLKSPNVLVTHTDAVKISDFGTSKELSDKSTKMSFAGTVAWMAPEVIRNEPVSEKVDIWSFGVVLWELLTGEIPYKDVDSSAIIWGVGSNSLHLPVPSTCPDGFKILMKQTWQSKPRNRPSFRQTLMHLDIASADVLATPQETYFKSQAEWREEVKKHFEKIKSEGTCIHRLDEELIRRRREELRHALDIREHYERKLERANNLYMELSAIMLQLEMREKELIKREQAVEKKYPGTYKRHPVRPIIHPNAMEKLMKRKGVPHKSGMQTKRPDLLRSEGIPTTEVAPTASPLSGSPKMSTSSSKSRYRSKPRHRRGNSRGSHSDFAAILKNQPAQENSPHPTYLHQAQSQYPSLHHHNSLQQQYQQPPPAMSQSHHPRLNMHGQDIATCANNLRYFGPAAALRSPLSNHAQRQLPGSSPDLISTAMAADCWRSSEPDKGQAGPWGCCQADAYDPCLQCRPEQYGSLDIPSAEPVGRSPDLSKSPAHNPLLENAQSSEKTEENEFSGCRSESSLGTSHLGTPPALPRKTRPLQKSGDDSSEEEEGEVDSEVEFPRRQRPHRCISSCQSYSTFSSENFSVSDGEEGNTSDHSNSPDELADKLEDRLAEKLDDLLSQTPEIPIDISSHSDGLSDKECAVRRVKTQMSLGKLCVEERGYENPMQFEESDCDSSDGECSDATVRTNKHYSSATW
Description: All indicated concentrations final concentrations. […] Detection buffer: 25 mM Tris/HCl pH 7.5, 100 mM EDTA, 100 mM NaCl, 200 mM KF, 0.01% Tween 20, 1:500 Smart Block.

## COC[C@H](NC(=O)c1cc(-c2cc(C(=O)NC(C)C)n3nc(N)nc3c2)cs1)c1ccccc1 [US20230382904, Compound 155]
[1]
  IC50: 4.3 nM
[2]
  IC50: 41 nM

— BindingDB's records for patent US20230382904 (The Johns Hopkins University, 2023)
